Laboratory results from patent US5614533A, “Substituted pipecolinic acid derivatives as HIV protease inhibitors” (Bio-Mega/Boehringer Ingelheim Research, Inc., priority 1994, dated 1997).

Legend:
HIV protease = molecular target: T1, HIV protease (Human immunodeficiency virus type 1 group M subtype B, UniProt P04585); test: Recombinant HIV Protease HPLC Assay; format: biochemical; settings: 37°, 30 min, pH 5.5
T1 construct: HIV protease was expressed in E. coli; made in house; host or cells: E. coli (plasmid pBRT1 prt+)
Summary of the method: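 Recombinant protease from E. coli (pBRT1 prt+ construct), purified and diluted 1/38 for use, cleaves the decapeptide substrate VSFNFPQITL-NH2, containing an HIV polyprotein cleavage site. Inhibition of cleavage is monitored by HPLC.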

[1] = system: HIV (H9/HTLV-IIIB) in C8166 cells; test: plaque assay: inhibition of syncytia formation in HIV-infected C8166 cells; format: cell-based; settings: 72 h, 50% inhibition of syncytia formation
Description: Typical of such procedures are those described by S. Harada and N. Yamamoto, Jpn. J. Cancer Res. (Gann), 76, 432 (1985), and S. Harada et al., Science, 229, 563 (1985). An assay based on the latter procedures is described in the examples hereinafter.
The following protocol, used for screening antiviral effects of the compounds of formula 1, is adapted from a plaque assay utilizing HTLV-I transformed cells, previously reported by Harada et al., supra. HTLV-I transformed cells are used because of the rapidity with which HIV will replicate in the cells.
1. The test compound is dissolved in dimethylsulfoxide to a concentration of 5 mg/mL. The resultant solution can be stored at 4° until use.
2. The resultant solution is diluted in RPMI 1640 (Gibco Laboratories, St. Lawrence, Mass., USA) to four times (4×) the final concentration which is to be tested. Once diluted in RPMI 1640, the solution is used in the cell culture assay within 4 h.
3. The 4× solution (50 μL) is added to triplicate wells of a 96 well flat bottomed microtiter plate. RPMI (50 μL) also is added to control wells.
4. C8166 cells (5×10^4) in 50 μL of HEPES-buffered RPMI 1640 (pH=7.2), 10% heat inactivated fetal calf serum (FCS), […] gentamicin (complete media) are added to all wells.
5. Fifty times TCID50 of H9/HTLV-IIIB stock (stored in liquid nitrogen as cell culture supernatant in 50% FCS) in 100 μL of complete media is added to all wells. Infectious titer of virus stocks are as previously determined by end point dilution on C8166 cells. Titer of stocks are stable for 6-12 months when stored at -193°.
6. Microtiter plates are then placed on level shelves of a 37°, 5% CO2 humidified incubator for 72 h.
7. Plates are then removed and centers of syncytia are counted in each well by low power phase contrast light microscopy. […] Control wells should have between 25 and 75 centers of syncytia per well.
8. Percent inhibition of syncytia formation is calculated by the formula: [formula]
The concentration of the test compound which causes a 50% inhibition of syncytia formation, i.e. the EC50, is determined by using the technique of serial dilution of the working solution at step 3 and by using non-linear regression analysis (SAS® program) to graphically plot the observed percent inhibition of syncytia formation against the various concentrations of the test compound.

[2] = Human immunodeficiency virus 1, IIIB, Table V
[3] = Human immunodeficiency virus 1, IIIB, Table IV
[4] = Human immunodeficiency virus 1, IIIB, Table VI

IC50 (HIV protease; Table V) | IC50 (HIV protease; Table IV) | EC50 [1, 3] | SMILES | further results
1.7 nM |  |  | CC(C)[C@H](NC(=O)c1ccc2ccccc2n1)C(=O)N[C@@H](Cc1ccccc1)[C@H](O)CN1CC[C@@H](S(=O)(=O)c2ccncc2)C[C@H]1C(=O)NC(C)(C)C [Table V, entry 21, N-tert-butyl-1-{2(R)-hydroxy-4-phenyl-3(S)-{{N-(2-quinolylinylcarbonyl)valyl}amino}butyl}-4(R)-(4-pyridinylsulfonyl)piperidine-2(S)-carboxamide] | EC50 [1, 2]: 25 nM
 |  |  | CC(C)(C)NC(=O)[C@@H]1C[C@H](Sc2ccncc2)CCN1C[C@@H](O)[C@H](Cc1ccccc1)NC(=O)c1c(F)cccc1F [Table VII, entry 8, N-tert-butyl-1-{3(S)-{{(2,6-difluorophenyl)carbonyl}amino}-2(R)-hydroxy-4-phenylbutyl}-4(R)-(4-pyridinylthio)piperidine-2(S)-carboxamide] | IC50 (HIV protease; Table VII): 14 nM; EC50 ([1]; Human immunodeficiency virus 1, IIIB, Table VII): 340 nM
 | 2.5 nM | 42 nM | CC(C)(C)NC(=O)[C@@H]1C[C@H](Oc2ccccc2)CCN1C[C@@H](O)[C@H](Cc1ccccc1)NC(=O)[C@H](CC(N)=O)NC(=O)OCc1ccccc1 [Table IV, entry 17] | 
 |  |  | Cc1cc(C)nc(S[C@@H]2CCN(C[C@@H](O)[C@H](Cc3ccccc3)NC(=O)[C@H](CC(N)=O)NC(=O)c3ccc4ccccc4n3)[C@H](C(=O)NC(C)(C)C)C2)n1 [Table VI, entry 2, N-tert-butyl-1-{2(R)-hydroxy-4-phenyl-3(S)-{{N-(2-quinolylinylcarbonyl)asparaginyl}amino}butyl}-4(R)-{(4,6-dimethyl-2-pyrimidinyl)}thiopiperidine-2(S)-carboxamide] | IC50 (HIV protease; Table VI): 2.2 nM; EC50 [1, 4]: 42 nM
3.6 nM |  |  | Cc1cc(O[C@@H]2CCN(C[C@@H](O)[C@H](Cc3ccccc3)NC(=O)[C@@H](NC(=O)c3ccc4ccccc4n3)C(C)C)[C@H](C(=O)NC(C)(C)C)C2)nc(C)n1 [Table V, entry 13, N-tert-butyl-1-{2(S)(R)-hydroxy-4-phenyl-3(S)-{{N-(2-quinolylinylcarbonyl)valyl}amino}butyl}-4(R)-{(2,6-dimethyl-4-pyrimidinyl)oxy}piperidine-2-carboxamide] | EC50 [1, 2]: 17 nM
 |  |  | CC(C)(C)NC(=O)[C@@H]1C[C@H](Sc2ccccc2)CCN1C[C@@H](O)[C@H](Cc1ccccc1)NC(=O)[C@@H](NC(=O)c1ccc2ccccc2n1)C(C)(C)C [Table VI, entry 1, N-tert-butyl-1-{2(R)-hydroxy-4-phenyl-3(S)-{{N-(2-quinolylinylcarbonyl)tert-butylglycyl}amino}butyl}-4(R)-(phenylthio)piperidine-2(S)-carboxamide] | IC50 (HIV protease; Table VI): 3 nM; EC50 [1, 4]: 12 nM
 | 16 nM | 500 nM | CC(C)(C)NC(=O)[C@@H]1C[C@H](Sc2ccccn2)CCN1C[C@@H](O)[C@H](Cc1ccccc1)NC(=O)OCc1ccccc1 [Table IV, entry 28] | 
 | 1.8 nM | 10 nM | CC(C)(C)NC(=O)[C@@H]1C[C@H](Sc2ccccc2)CCN1C[C@@H](O)[C@H](Cc1ccccc1)NC(=O)[C@H](CC(N)=O)NC(=O)c1ccc2ccccc2n1 [Table IV, entry 23, N-tert-butyl-1-{2(R)-hydroxy-4-phenyl-3(S)-{{N-(2-quinolinylcarbonyl)asparaginyl}amino}butyl}-4(R)-(phenylthio)piperidine-2(S)-carboxamide] | 

SMILES | IC50 (HIV protease; Table V) | IC50 (HIV protease; Table IV) | EC50 [1, 3] | further results
CC(C)[C@H](NC(=O)c1ccc2ccccc2n1)C(=O)N[C@@H](Cc1ccccc1)C(O)CN1CC[C@@H](S(=O)(=O)c2ccccc2)CC1C(=O)NC(C)(C)C (stereo partly drawn) [Table V, entry 14, N-tert-butyl-1-{2(S)(R)-hydroxy-4-phenyl-3(S)-{{N-(2-quinolylinylcarbonyl)valyl}amino}butyl}-4(R)-(phenylsulfonyl)piperidine-2-carboxamide] | 2.9 nM |  |  | EC50 ([1]; Table V): 23 nM
